Values of other authors in article PMC6311893, “Computational prediction of plasma protein binding of cyclic peptides from small molecule experimental data using sparse modeling techniques” (BMC Bioinformatics, 2018).
Like-named read-outs stand apart in the source and are kept apart here.

System: plasma protein
Conditions: cited from earlier work
[1] = fraction bound to plasma protein, small molecule dataset, sheet 1-SM (Set Dte = test, Dtr = training), ref Ingle et al.
[2] = fraction bound to plasma protein, small molecule dataset, sheet 1-SM, ref Ingle et al.
[3] = fraction bound to plasma protein, small molecule dataset, sheet 1-SM, Set Dtr, ref Ingle et al.

CCC1(C2=CCCCC2)C(=O)NC(=O)NC1=O [cyclobarbital]
PPB (fb) (plasma): 0.7

C=C[C@H]1C[N@@]2CC[C@H]1C[C@@H]2[C@@H](O)c1ccnc2ccc(OC)cc12 [Quinidine]
PPB (fb) [1]: 0.74

NCCCC(N)(C(=O)O)C(F)F (stereo not drawn) [eflornithine]
PPB (fb) [1]: 0

CC1(C)SC2C(NC(=O)C(N)c3cccc(O)c3)C(=O)N2C1C(=O)O (stereo not drawn) [penicillin32]
PPB (fb) [2]: 0.17

Tetracycline
PPB (fb) (plasma): 0.36

COC1=C(OC)C(=O)C(CCCCCCCCCCO)=C(C)C1=O [idebenone]
PPB (fb) [2]: 0.9

CN(C)CCN(C)N1C=C(c2ccccc2)C2C=CC=CC21 (stereo not drawn) [Binedaline]
PPB (fb) [1]: 0.96

C=CCOc1ccccc1OCC(O)CNC(C)C (stereo not drawn) [oxprenolol]
PPB (fb) [1]: 0.77

Cc1ccnc2c1NC(=O)c1cccnc1N2C1CC1 [Nevirapine]
PPB (fb) [3]: 0.64

COCC1CN(c2ccc(OCc3cccc(C#N)c3)cc2)C(=O)O1 (stereo not drawn) [cimoxatone]
PPB (fb) [1]: 0.94

Cc1onc(-c2c(Cl)cccc2Cl)c1C(=O)N[C@@H]1C(=O)N2[C@@H]1SC(C)(C)[C@@H]2C(=O)O [Dicloxacillin]
PPB (fb) [3]: 0.96

CC(=O)O[C@H]1C[C@@H]2CC[C@@H]3[C@H](CC[C@@]4(C)[C@H]3C[C@H](N3CC[N+](C)(C)CC3)[C@@H]4OC(C)=O)[C@@]2(C)C[C@@H]1N1CC[N+](C)(C)CC1 [Pipecuronium]
PPB (fb) [1]: 0.02

C[N+](C)(C)CCOC(=O)CCC(=O)OCC[N+](C)(C)C [succinylcholine]
PPB (fb) (plasma): 0.3

CCOC(=O)C1(c2ccccc2)CCN(CCC(O)c2ccccc2)CC1 (stereo not drawn) [phenoperidine]
PPB (fb) (plasma): 0.8

CN1C[C@H](C(=O)N[C@]2(C)O[C@@]3(O)[C@@H]4CCCN4C(=O)[C@H](Cc4ccccc4)N3C2=O)C[C@@H]2c3cccc4[nH]cc(c34)C[C@H]21 [dihydroergotamine]
PPB (fb) [1]: 0.93

O=C(OC1Cc2c(O)cc(O)cc2OC1c1cc(O)c(O)c(O)c1)c1cc(O)c(O)c(O)c1 (stereo not drawn) [Epigallocatechin gallate]
PPB (fb) [2]: 0.91

CCC1(c2ccccc2)C(=O)NC(=O)NC1=O [Phenobarbital]
PPB (fb) (plasma): 0.43

COc1ccc2c(c1)c(CC(=O)O)c(C)n2C(=O)c1ccc(Cl)cc1 [Indomethacin]
PPB (fb) [3]: 0.97

COc1ncnc(NS(=O)(=O)c2ccc(N)cc2)c1OC [sulfadoxine]
PPB (fb) [2]: 0.94

COCCOc1c(OC)cc(Cc2cnc(N)nc2N)cc1OC [tetroxoprim]
PPB (fb) [2]: 0.15

Nc1ccc(S(=O)(=O)Nc2ncccn2)cc1 [Sulfadiazine]
PPB (fb) [2]: 0.45

CC1(C)SC2C(NC(=O)COc3cccc(F)c3)C(=O)N2C1C(=O)O (stereo not drawn) [penicillin53]
PPB (fb) [2]: 0.83

COC(C(=O)NC1C(=O)N2C1SC(C)(C)C2C(=O)O)c1c(Cl)cccc1Cl (stereo not drawn) [penicillin41]
PPB (fb) [2]: 0.84

CCN1CCCC1CNC(=O)c1cc(S(N)(=O)=O)ccc1OC (stereo not drawn) [sulpiride]
PPB (fb) [1]: 0.25

COc1ccc(C[C@@H]2c3cc(OC)c(OC)cc3CC[N@+]2(C)CCC(=O)OCCCCCOC(=O)CC[N@@+]2(C)CCc3cc(OC)c(OC)cc3[C@H]2Cc2ccc(OC)c(OC)c2)cc1OC [Cisatracurium]
PPB (fb) [3]: 0.38

CCn1cc(C(=O)O)c(=O)c2cc(F)c(N3CCNC(C)C3)c(F)c21 (stereo not drawn) [lomefloxacin]
PPB (fb) [1]: 0.12

CC(C)CC(N(C)C)C1(c2ccc(Cl)cc2)CCC1 (stereo not drawn) [sibutramine]
PPB (fb) (plasma): 0.95

O=c1[nH]c2ccccc2n1CCCN1CCN(C(c2ccccc2)c2ccccc2)CC1 [oxatomide]
PPB (fb) [2]: 0.91

Cc1cc(CC(=O)O)n(C)c1C(=O)c1ccc(Cl)cc1 [zomepirac]
PPB (fb) [1]: 0.98

CCC(=O)O[C@](Cc1ccccc1)(c1ccccc1)[C@H](C)CN(C)C [Propoxyphene]
PPB (fb) (plasma): 0.75

norgestimate
PPB (fb) (plasma): 0.99

C#C[C@]1(O)C=C[C@H]2[C@@H]3CCC4=CC(=O)CC[C@@H]4[C@H]3CC[C@@]21CC [Gestodene]
PPB (fb) [3]: 0.98

CCCN(CCC)CCc1cccc2c1CC(=O)N2 [ropinirole]
PPB (fb) (plasma): 0.4

COc1ccc(NS(=O)(=O)c2ccc(N)cc2)nn1 [sulfamethoxypyridazine]
PPB (fb) [1]: 0.75

Nc1ccc(S(=O)(=O)c2ccc(N)cc2)cc1 [Dapsone]
PPB (fb) [3]: 0.75

CO[C@]12C[C@@H](COC(=O)c3cncc(Br)c3)CN(C)[C@@H]1Cc1cn(C)c3cccc2c13 [nicergoline]
PPB (fb) [2]: 0.95

C/N=C(\NC)NCc1ccccc1 [bethanidine]
PPB (fb) [1]: 0.1

COCCOc1cnc(NS(=O)(=O)c2ccccc2)nc1 [glymidine]
PPB (fb) [2]: 0.8

CCC(C)(C)NCC(O)COc1ccccc1C(=O)CCc1ccccc1 (stereo not drawn) [Diprafenone]
PPB (fb) [1]: 0.98

Nc1ccc(O)c(C(=O)O)c1 [Aminosalicylic acid__ 5-]
PPB (fb) [3]: 0.61

CC(Oc1cccc2ccccc12)C(=O)NC1C(=O)N2C1SC(C)(C)C2C(=O)O (stereo not drawn) [penicillin70]
PPB (fb) [2]: 0.97

CCC1(O)CN2CCC1CC2C(O)c1ccnc2ccc(OC)cc12 (stereo not drawn) [Hydroxydihydroquinidine]
PPB (fb) (plasma): 0.53

CC(=O)O[C@H]1C[C@H](O[C@H]2[C@@H](O)C[C@H](O[C@H]3[C@@H](O)C[C@H](O[C@H]4CC[C@@]5(C)[C@H](CC[C@@H]6[C@@H]5C[C@@H](O)[C@]5(C)[C@@H](C7=CC(=O)OC7)CC[C@]65O)C4)O[C@@H]3C)O[C@@H]2C)O[C@H](C)[C@H]1O [alpha-acetyldigoxin]
PPB (fb) (plasma): 0.25

Cc1ncc([N+](=O)[O-])n1CCO [Metronidazole]
PPB (fb) [1]: 0.07

O=C(O)[C@H]1O[C@@H](Oc2cc3oc(-c4ccccc4)cc(=O)c3c(O)c2O)[C@H](O)[C@@H](O)[C@@H]1O [baicalin]
PPB (fb) [1]: 0.66

CN1CCN(C2=Nc3cc(Cl)ccc3Nc3ccccc32)CC1 [Clozapine]
PPB (fb) [3]: 0.95

COc1ccc2c(C(=S)N(C)CC(=O)O)cccc2c1C(F)(F)F [tolrestat]
PPB (fb) [3]: 0.99

CCOc1cc(CC(=O)N[C@@H](CC(C)C)c2ccccc2N2CCCCC2)ccc1C(=O)O [Repaglinide]
PPB (fb) [2]: 0.98

CCOC(=O)n1ccn(C)c1=S [carbimazole]
PPB (fb) [1]: 0.07

CC(=O)C1CCC2C3CC=C4CC(O)CCC4(C)C3CCC12C (stereo not drawn) [Pregnenolone]
PPB (fb) [2]: 0.8

CCOC(=O)Nc1ccc(NCc2ccc(F)cc2)nc1N [Flupirtine]
PPB (fb) [3]: 0.82

CN1C(=O)CCS(=O)(=O)C1c1ccc(Cl)cc1 (stereo not drawn) [chlormezanone]
PPB (fb) (plasma): 0.5

CCN(CC)CCNC(=O)c1cc(Cl)c(N)cc1OC [Metoclopramide]
PPB (fb) [1]: 0.37

Cc1cccc(C)c1NC(=O)NCCCNC(C)C [Recainam]
PPB (fb) [3]: 0.14
